Where two headings read alike, the source gives them in different places.
Key:
A549 cell = assay: Evaluation of PGE2 production inhibitory action using A549 cell (IL-1β stimulated); type: cell-based, human
Procedure: Experimental Example 2: Evaluation of PGE2 Production Inhibitory Action Using A549 Cell
A549 cell (Japan Health Sciences Foundation Research Resources Bank), which is cell line derived from humans lung cancer, was suspended in assay medium (Ham's F-12K (Wako, #080-08565) containing 2% FBS (Hyclone Laboratories, #SH30910.03), 100 units/mL penicillin and 100 μg/mL streptomycin (Invitrogen, #15140-122)), the suspension was added at 2.5×10^4 cells/100 μL/well to 96 well flat-bottom plate (Corning, #353072), and the plate was left standing for 20 hr in a CO2 incubator set at 37° C. The test article was serially diluted with DMSO (Nacalai Tesque, #13407-45), and then 20-fold diluted with the assay medium to prepare a test article solution having a ten-fold concentration of the final concentration. The final DMSO concentration during the reaction was set to 0.5% (v/v). The medium was removed from the plate in which the cell was added, new assay medium was added at 160 μL/well to the plate, and the plate was left standing for 10 min in a CO2 incubator. Then, the test article solution was added at 20 μL/well to the plate, and the plate was left standing for 30 min in a CO2 incubator. Next, recombinant humans IL-1β (R&D Systems, #201-LB) as a stimulant to enhance PGE2 production due to increase of mPGES-1 mRNA expression was added at 20 μL/well (the final concentration was 1 ng/mL) to the plate, and the plate was left standing for 18 hr in a CO2 incubator. The supernatant was collected at 180 μL/well, and the PGE2 concentration was measured using Prostaglandin E2 assay (CISbio Bioassays, #62P2APEC) according to the manual. As the reference standard for analytical curve, PGE2 (Cayman Chemical, #14010) was used. Using EnVision 2104 (Perkin Elmer), the time-resolved fluorescence at 620 nm and 665 nm relative to the excitation light at 337 nm was measured. PGE2 concentration was extrapolated from the PGE2 analytical curve. Average of the PGE2 concentrations of the respectively-treated wells was used as the data.
The PGE2 production inhibitory activity (%) of the test article was calculated according to the following Formula 3. PGE2 production inhibitory activity(%)=(PGE2A−PGE2X)/(PGE2A−PGE2B)×100 [Formula 3] • PGE2A: PGE2 concentration of vehicle-treated well • PGE2B: PGE2 concentration of blank well (no addition of recombinant humans IL-1B) • PGE2X: PGE2 concentration of test article-treated well

human mPGES-1 = target: T1, human mPGES-1 (Homo sapiens, UniProt O14684); assay: Evaluation of human mPGES-1 enzyme inhibitory activity (HTRF measurement of PGE2); type: biochemical; details: IC50 value; microsome fraction of CHO-S cells expressing human mPGES-1, PGH2 substrate, PGE2 by HTRF; read-out: humans mPGES-1 enzyme inhibitory activity
T1 construct: made in house; host or cells: Chinese hamster ovary-derived cells (FreeStyle CHO-S), transient transfection of pcDNA3.1(+)/human mPGES-1; microsome fraction
T1 sequence (O14684 1-152): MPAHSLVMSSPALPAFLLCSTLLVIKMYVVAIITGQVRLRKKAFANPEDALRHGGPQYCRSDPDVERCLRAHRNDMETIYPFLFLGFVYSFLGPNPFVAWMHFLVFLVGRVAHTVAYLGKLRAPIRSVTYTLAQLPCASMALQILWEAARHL
Procedure: Experimental Example 1: Evaluation of Human mPGES-1 Enzyme Inhibitory Activity
The human mPGES-1 enzyme inhibitory activity of a test article was evaluated according to the report of Xu et al. (XU, D et al. MF63 [2-(6-chloro-1H-phenanthro[9,10-d]imidazol-2-yl)-isophthalonitrile], a selective microsomal prostaglandin E synthase-1 inhibitor relieves pyresis and pain in preclinical models of inflammation. J Pharmacol Exp Ther. September 2008, Vol. 326, No. 3, pages 754-763). The amount of PGE2 produced by human mPGES-1 in the presence of a test article was measured by the HTRF (homogeneous time resolved fluorescence) method, and the human mPGES-1 enzyme inhibitory activity of the test article was determined.
1) Preparation of Human mPGES-1 Expressing Cell Microsome Fraction
A DNA fragment containing human mPGES-1, which is added with a BamHI recognition cleavage sequence just before the translation initiation codon and an EcoRI recognition cleavage sequence just after the translation termination codon, was amplified by the PCR (Polymerase Chain Reaction) method using a human mPGES-1 expression plasmid DNA (pME-18S/iPGES-1) prepared in-house as a template. The purified DNA fragment was digested with BamHI and EcoRI, and ligated to pcDNA3.1(+) (Invitrogen, model number V790-20), similarly_digested with BamHI and EcoRI, by using a DNA Ligation kit ver. 2.1 (Takara Bio, model number 6022). The human mPGES-1 expression plasmid DNA was isolated from Escherichia coli DH5a (TOYOBO, model number DNA-903) transformed with the obtained ligation product. The base sequence of human mPGES-1 cloned to a vector was determined by the Dye Terminator method using BigDye Terminator v3.1 Cycle Sequencing Kit (Applied Biosystems, #4337455). The determined sequence was identical with the sequence of the protein translational region of human mPGES-1 (Accession number NM 004878) registered in the NCBI Reference Database.
Human mPGES-1 expression plasmid DNA was transfected into Chinese hamster ovary-derived cells (FreeStyle CHO-S Cell, Invitrogen, #R^800-07) by using a transgene reagent (FreeStyle MAX Reagent (Invitrogen, #16447-100)), and cultured with shaking (8% CO2, 37° C.) in a medium containing 8 mmol/L L-glutamine (GIBCO FreeStyle CHO Expression Medium, Invitrogen, #12651-022) for 48 hr.
The CHO-S cells were suspended in Homogenate Buffer (100 mmol/L potassium phosphate (pH 7.4), 250 mmol/L Sucrose, 100 mmol/L EDTA, complete EDTA free (Roche, #1873580)). Using an ultrasonic disruptor UD-201 (Tomy Seiko), the suspended cells were disrupted at output:3, duty cycle:50 for 30 seconds. The precipitate was removed by centrifugation (1,000×g, 5 min, 4° C.), and the supernatant was centrifuged (5,000×g, 10 min, 4° C.). The supernatant was further centrifuged (105,000×g, 60 min, 4° C.). The obtained precipitate was suspended in Resuspension Buffer (100 mmol/L potassium phosphate (pH 7.4), 250 mmol/L sucrose, 100 mmol/L EDTA, 10% glycerol) to give a microsome fraction.
The protein concentration of the microsome fraction was measured by the Bradford method (Protein Assay Kit, Bio-Rad). The microsome fraction was rapidly frozen in liquid nitrogen and preserved at −80° C. Human mPGES-1 in the microsome fraction was detected by Western Blot using rabbit anti-mPGES-1 polyclonal antibody (ThermoFisher Scientific, #PA1-10264).
2) Evaluation of Human mPGES-1 Enzyme Inhibitory Activity
A test article solution diluted with 0.1 mol/L potassium phosphate, pH 7.4 (hereinafter to be referred to as KPB) or DMSO (Nacalai Tesque, #13407-45) was added at 5 μL/well to 96 well V-bottom plate (Corning, #3363). The final DMSO concentration during the reaction was set to 2%(v/v). Furthermore, a microsome fraction of CHO-S cells expressing human mPGES-1, which was diluted with reduced GSH (12.5 mmol/L KPB solution, SIGMA, #G6529-25G) such that the protein concentration was 5 μg/mL, was added at 20 μL/well. […]

[1] = Homo sapiens, A549, 18 h, IC50 value, A549 cell, recombinant IL-1β 1 ng/mL, 18 hr, PGE2 in supernatant, read-out: cell PGE2 production inhibitory activity
[2] = Homo sapiens, A549, A549 cell, recombinant human IL-1β stimulation, read-out: cell PGE2 production inhibitory activity (IC50 value)

IC50 (A549 cell; [1])	IC50 (human mPGES-1)	IC50 (A549 cell; [2])	IC50 (A549 cell; A549 cell, recombinant human IL-1β stimulation, read-out: cell PGE2 production inhibitory activity (IC50 value))	Compound
–	2.4 nM	0.9 nM	–	CCC[C@@H](C)Oc1ccc(-c2nc(O)nc(-c3cc(CNC(=O)C4(C(F)F)CCCCC4)ccc3Cl)n2)cn1 [Example 127]
–	1.9 nM	17 nM	–	CC(C)c1cc(-c2nc(O)nc(-c3cc(CNC(=O)C4(CF)CCCC4)ccc3Cl)n2)ccc1Cl [Example 95]
1000 nM	21 nM	–	–	COCC1(C(=O)NCc2ccc(Cl)c(-c3nc(O)nc(-c4cccc(C(C)C)c4)n3)c2)CC1 [Example 13]
–	1.7 nM	11 nM	–	CC(C)(C)c1cccc(-c2nc(O)nc(-c3cc(CNC(=O)C4(CF)CCCCC4)ccc3Cl)n2)c1 [Example 99]
–	3.2 nM	1.8 nM	–	CCC[C@H](C)Oc1ccc(-c2nc(O)nc(-c3cc(CNC(=O)C4(C(F)F)CCCCC4)ccc3Cl)n2)cn1 [Example 109]
–	3.1 nM	13 nM	–	CC(C)c1cc(-c2nc(O)nc(-c3cc(CNC(=O)C4(CF)CCCCCC4)ccc3Cl)n2)ccc1Cl [Example 114]
–	1.8 nM	95 nM	–	CC1(c2cccc(-c3nc(O)nc(-c4cc(CNC(=O)C5(CF)CCCCCC5)ccc4Cl)n3)c2)CC1 [Example 113]
–	1 nM	59 nM	–	CC1(c2cccc(-c3nc(O)nc(-c4cc(CNC(=O)C5(CF)CCCC5)ccc4Cl)n3)c2)CC1 [Example 94]
–	2.1 nM	7.9 nM	–	CC(C)c1cc(-c2nc(O)nc(-c3cc(CNC(=O)C4(CF)CCCCC4)ccc3Cl)n2)ccc1Cl [Example 101]
–	2.2 nM	1.3 nM	–	CCC[C@@H](C)Oc1ccc(-c2nc(O)nc(-c3cc(CNC(=O)C4(CF)CCCCC4)ccc3Cl)n2)cn1 [Example 128]
130 nM	2.9 nM	–	–	CC(C)c1cccc(-c2nc(O)nc(-c3cc(CNC(=O)C4(F)CC4)ccc3Cl)n2)c1 [Example 38]

More lines, now with the values behind:

Compound	IC50 (A549 cell; [1])	IC50 (human mPGES-1)	IC50 (A549 cell; [2])	IC50 (A549 cell; A549 cell, recombinant human IL-1β stimulation, read-out: cell PGE2 production inhibitory activity (IC50 value))
COc1ccc(-c2nc(O)nc(-c3cc(CNC(=O)C(C)(C)C(F)(F)F)ccc3Cl)n2)cn1 [Example 26]	260 nM	0.7 nM	–	–
CCCOc1ccc(-c2nc(O)nc(-c3cc(CNC(=O)C(C)(C)C(F)(F)F)ccc3Cl)n2)cn1 [Example 2]	8.6 nM	1.1 nM	–	–
CCCOc1ccc(-c2nc(O)nc(-c3cc(CNC(=O)C4(C(F)(F)F)CCCC4)ccc3Cl)n2)cn1 [Example 45]	8 nM	1.3 nM	–	–
CCC(CC)(C(=O)NCc1ccc(Cl)c(-c2nc(O)nc(-c3ccc(Cl)c(C(C)C)c3)n2)c1)C(F)F [Example 119]	–	1.8 nM	3 nM	–
CC(C)(C)c1cc(-c2nc(O)nc(-c3cc(CNC(=O)C(C)(C)C(F)(F)F)ccc3Cl)n2)cc(C(C)(C)C)c1 [Example 20]	150 nM	30 nM	–	–
CCC(C)(C)C(=O)NCc1ccc(Cl)c(-c2nc(O)nc(-c3cccc(C(C)C)c3)n2)c1 [Example 6]	23 nM	0.4 nM	–	–
CCCCC(C)(C)C(=O)NCc1ccc(Cl)c(-c2nc(O)nc(-c3ccc(OCCC)nc3)n2)c1 [Example 47]	100 nM	2.1 nM	–	–
CC(C)Oc1ccc(-c2nc(O)nc(-c3cc(CNC(=O)C(C)(C)C(F)(F)F)ccc3Cl)n2)cn1 [Example 40]	45 nM	0.8 nM	–	–
CCC[C@@H](C)Oc1ccc(-c2nc(O)nc(-c3cc(CNC(=O)C4(C(F)F)CCCC4)ccc3Cl)n2)cn1 [Example 126]	–	3.1 nM	2.5 nM	–
CCOc1ccc(-c2nc(O)nc(-c3cc(CNC(=O)C(C)(C)C(F)(F)F)ccc3Cl)n2)cn1 [Example 27]	79 nM	0.7 nM	–	–
CCC[C@@H](C)Oc1ccc(-c2nc(O)nc(-c3cc(CNC(=O)C4(C(F)(F)F)CCCC4)ccc3Cl)n2)cn1 [Example 125]	–	6 nM	1.6 nM	–
CCC(CC)(C(=O)NCc1ccc(Cl)c(-c2nc(O)nc(-c3cccc(C(C)C)c3)n2)c1)C(F)F [Example 116]	–	1.2 nM	7.2 nM	–
CCC(OC)(C(=O)NCc1ccc(Cl)c(-c2nc(O)nc(-c3cccc(C(C)C)c3)n2)c1)C(F)(F)F (single isomer, unassigned) [Example 132]	–	0.8 nM	–	4.8 nM
CCC[C@@H](C)Oc1ccc(-c2nc(O)nc(-c3cc(CNC(=O)C(CC)(CC)CF)ccc3Cl)n2)cn1 [Example 124]	–	2.6 nM	2.5 nM	–
CCCCc1cccc(-c2nc(O)nc(-c3cc(CNC(=O)C(C)(C)C(F)(F)F)ccc3Cl)n2)c1 [Example 5]	30 nM	1.1 nM	–	–
COCC(C)(C)C(=O)NCc1ccc(Cl)c(-c2nc(O)nc(-c3cccc(C(C)C)c3)n2)c1 [Example 12]	350 nM	3.2 nM	–	–
